From ChEMBL document CHEMBL4190382, “Targeting lysine specific demethylase 4A (KDM4A) tandem TUDOR domain - A fragment based approach” (Bioorg Med Chem Lett, 2018)
Positions count from the first letter of the chain named. Activity calls are given as the source filed them. No cut-off for these calls is given here.

Columns and labels:
[1] = target: T1, Lysine-specific demethylase 4A (Homo sapiens) (UniProt O75164); test: (§1) Inhibition of NanoLuc-KDM4A-TUDOR domain (unknown origin) binding to Histone H3.3-HaloTag expressed in 293T cells incubated for 18 hrs by Nano-BRET based target engagement assay; type: cell-based
T1 sequence (whole entry): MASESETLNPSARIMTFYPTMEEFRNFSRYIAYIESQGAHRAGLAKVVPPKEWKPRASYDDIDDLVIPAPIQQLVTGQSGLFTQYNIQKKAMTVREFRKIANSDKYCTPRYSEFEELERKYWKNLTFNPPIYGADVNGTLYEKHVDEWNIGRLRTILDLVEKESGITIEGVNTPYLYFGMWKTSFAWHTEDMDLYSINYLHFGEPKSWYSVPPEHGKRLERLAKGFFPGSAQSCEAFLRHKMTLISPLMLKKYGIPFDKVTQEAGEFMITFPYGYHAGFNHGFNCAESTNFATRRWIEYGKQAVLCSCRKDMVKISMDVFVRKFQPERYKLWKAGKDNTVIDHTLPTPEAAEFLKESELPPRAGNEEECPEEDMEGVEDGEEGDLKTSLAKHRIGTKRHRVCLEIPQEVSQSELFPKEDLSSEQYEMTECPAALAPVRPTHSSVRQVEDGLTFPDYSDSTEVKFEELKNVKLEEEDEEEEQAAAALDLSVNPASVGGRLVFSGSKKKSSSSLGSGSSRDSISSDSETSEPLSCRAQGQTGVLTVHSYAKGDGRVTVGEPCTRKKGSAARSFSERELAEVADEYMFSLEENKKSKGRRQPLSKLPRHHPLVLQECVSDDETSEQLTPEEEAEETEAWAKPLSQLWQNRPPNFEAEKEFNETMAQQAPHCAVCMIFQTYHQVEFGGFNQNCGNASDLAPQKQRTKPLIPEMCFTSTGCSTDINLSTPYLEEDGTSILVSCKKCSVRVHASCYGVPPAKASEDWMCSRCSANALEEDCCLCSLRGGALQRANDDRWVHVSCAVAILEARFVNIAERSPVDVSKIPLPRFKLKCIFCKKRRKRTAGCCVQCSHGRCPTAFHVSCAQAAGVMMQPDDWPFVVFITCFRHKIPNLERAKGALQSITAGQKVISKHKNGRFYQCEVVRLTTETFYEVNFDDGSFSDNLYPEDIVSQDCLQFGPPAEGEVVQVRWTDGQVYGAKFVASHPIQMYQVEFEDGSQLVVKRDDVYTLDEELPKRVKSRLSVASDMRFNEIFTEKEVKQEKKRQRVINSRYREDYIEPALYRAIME

[2] = target: T2, Lysine-specific demethylase 4A (Homo sapiens, UniProt O75164); test: as §1; type: cell-based
T2 sequence (O75164 whole entry): T1 sequence (whole entry)

[3] = system: T3, Lysine-specific demethylase 4A (Homo sapiens), O75164 [Y973A]; test: Binding affinity to thrombin cleavable N-terminal 6His tagged and 13C-IVLM labeled human KDM4A tandem TUDOR domain (897 to 1011 residues) Y973A mutant expressed in Escherichia coli BL21(DE3)-T1R by ITC method
T3 sequence (whole entry): T1 sequence (whole entry) with Y973A

TP53-binding protein 1 = TP53-binding protein 1 (Homo sapiens, UniProt Q12888); test: Binding affinity to 6His-tagged and human 53BP1 tandem TUDOR domain (1488 to 1611 residues) expressed in Escherichia coli BL21(DE3)-T1R by ITC method
Sequence of TP53-binding protein 1 (Q12888 whole entry, the tested form may be a part): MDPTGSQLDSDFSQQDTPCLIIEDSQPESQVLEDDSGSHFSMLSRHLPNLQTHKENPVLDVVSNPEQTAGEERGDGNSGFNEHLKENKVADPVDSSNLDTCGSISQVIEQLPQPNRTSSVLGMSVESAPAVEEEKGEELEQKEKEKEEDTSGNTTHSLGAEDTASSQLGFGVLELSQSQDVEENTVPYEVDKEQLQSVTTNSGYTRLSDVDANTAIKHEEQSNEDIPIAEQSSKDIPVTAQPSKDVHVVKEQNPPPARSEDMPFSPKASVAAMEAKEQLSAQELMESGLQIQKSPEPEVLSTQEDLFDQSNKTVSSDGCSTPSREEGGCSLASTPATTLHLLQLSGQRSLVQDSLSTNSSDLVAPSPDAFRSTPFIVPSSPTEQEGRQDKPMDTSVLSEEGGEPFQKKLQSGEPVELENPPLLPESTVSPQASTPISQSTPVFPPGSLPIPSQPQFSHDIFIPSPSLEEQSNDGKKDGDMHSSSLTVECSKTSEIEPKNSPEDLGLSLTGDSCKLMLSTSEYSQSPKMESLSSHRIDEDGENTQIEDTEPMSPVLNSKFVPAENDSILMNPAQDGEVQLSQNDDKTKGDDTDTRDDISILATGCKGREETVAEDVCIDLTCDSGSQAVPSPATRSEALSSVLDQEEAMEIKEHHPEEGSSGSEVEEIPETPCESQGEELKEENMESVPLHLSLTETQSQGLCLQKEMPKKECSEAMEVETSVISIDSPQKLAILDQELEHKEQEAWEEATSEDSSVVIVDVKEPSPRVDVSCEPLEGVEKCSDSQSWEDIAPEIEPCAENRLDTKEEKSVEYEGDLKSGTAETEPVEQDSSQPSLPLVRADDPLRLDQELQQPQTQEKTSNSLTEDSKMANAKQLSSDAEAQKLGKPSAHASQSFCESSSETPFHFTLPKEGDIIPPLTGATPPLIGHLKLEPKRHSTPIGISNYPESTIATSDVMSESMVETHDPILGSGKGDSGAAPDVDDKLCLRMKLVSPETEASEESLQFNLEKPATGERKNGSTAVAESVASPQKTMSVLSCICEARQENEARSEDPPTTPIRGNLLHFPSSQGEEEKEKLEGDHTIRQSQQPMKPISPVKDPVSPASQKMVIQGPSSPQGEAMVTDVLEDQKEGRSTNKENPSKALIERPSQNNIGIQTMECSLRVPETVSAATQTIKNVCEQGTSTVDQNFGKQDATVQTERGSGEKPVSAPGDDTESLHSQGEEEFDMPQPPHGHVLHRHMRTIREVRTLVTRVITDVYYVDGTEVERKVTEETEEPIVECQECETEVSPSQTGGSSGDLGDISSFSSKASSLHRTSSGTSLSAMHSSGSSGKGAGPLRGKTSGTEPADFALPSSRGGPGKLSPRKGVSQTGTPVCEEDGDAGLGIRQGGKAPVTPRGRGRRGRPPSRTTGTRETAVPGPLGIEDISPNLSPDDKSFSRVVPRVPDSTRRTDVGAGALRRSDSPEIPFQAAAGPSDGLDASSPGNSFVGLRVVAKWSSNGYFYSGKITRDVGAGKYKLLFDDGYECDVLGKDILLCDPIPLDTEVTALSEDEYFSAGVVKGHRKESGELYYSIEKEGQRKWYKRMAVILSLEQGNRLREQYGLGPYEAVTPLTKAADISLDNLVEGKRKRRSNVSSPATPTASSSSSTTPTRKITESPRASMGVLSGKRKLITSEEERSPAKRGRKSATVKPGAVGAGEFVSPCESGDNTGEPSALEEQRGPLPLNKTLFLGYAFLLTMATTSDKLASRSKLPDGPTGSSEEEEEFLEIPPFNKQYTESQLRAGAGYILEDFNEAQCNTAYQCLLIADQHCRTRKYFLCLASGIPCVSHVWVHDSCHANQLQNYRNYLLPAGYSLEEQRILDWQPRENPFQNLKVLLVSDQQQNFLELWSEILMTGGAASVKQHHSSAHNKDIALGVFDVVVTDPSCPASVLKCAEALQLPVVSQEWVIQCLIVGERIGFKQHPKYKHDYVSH

## CN(C)C[C@H]1C2CCC(c3ccccc3)(C2)[C@H]1O (some centres undefined)
[1]
  inhibition: Dose-dependent effect
[2]
  EC50: 105 µM
[3]
  Activity: inactive
TP53-binding protein 1
  Kd: Not Active
